The record followed here is patent US20160271097A1, “FORMULATION OF OLOPATADINE” (NEPHRON PHARMACEUTICALS CORPORATION, priority 2013, published 2016).

The data set is described as follows: Dissolution of olopatadine in the formulation (minimum PVA). The class given is physicochemical. The settings on record: Olopatadine about 2.0 mg/mL. As to the method:
Initial experiments were conducted to examine the possible concentration ranges for the organic modifiers which would initially solubilize Olopatadine during formulation and maintain the solution stability such that no crystallization of the drug product would occur. An experiment was carried out to determine the minimum amount of PVA needed to obtain the total dissolution of Olopatadine in the formulation. The minimum amount of PVA determined to be effective in solubilizing the drug substance during formulation and which prevented crystal growth in the drug product was 0.5%. Concentrations of such PVA below 0.5% are insufficient to permit dissolution of Olopatadine concentrations of about 2.0 mg/mL. Concentrations at or […] were susceptible to the drug substance starting to dissolve but then precipitating back out of solution during formulation.

SMILES strings stand for the structures.

For the molecule `CN(C)CC/C=C1/c2ccccc2COc2ccc(CC(=O)O)cc21` [Olopatadine, {(11Z)-11-[3-(dimethylamino)propylidene]-6,11-dihydrodibenzo[b,e]oxepin-2-yl} acetic acid], the “Minimum amount of PVA effective in solubilizing the drug substance and preventing crystal growth” value stood at 0.5%.
